Experimental data taken from ChEMBL document CHEMBL5137022, “Antitumor Activity of Rutaecarpine in Human Colorectal Cancer Cells by Suppression of Wnt/β-Catenin Signaling” (J Nat Prod, 2022).

Tests used:
CCD-841CoN = assay: Antiproliferative activity against human CCD-841CoN cells assessed as reduction in cell viability measured after 72 hrs by SRB assay; type: functional, cell-based
LS174T = assay: Antiproliferative activity against human LS174T cells harboring beta-catenin mutant assessed as reduction in cell viability measured after 72 hrs by SRB assay; type: functional, cell-based
SW480 = assay: Antiproliferative activity against human SW480 cells harboring wild type beta-catenin assessed as reduction in cell viability measured after 72 hrs by SRB assay; type: functional, cell-based; conditions: SW480, 72 h
RKO = assay: Antiproliferative activity against human RKO cells harboring wild type beta-catenin assessed as reduction in cell viability measured after 72 hrs by SRB assay; type: functional, cell-based
HCT-116 = assay: Antiproliferative activity against human HCT-116 cells harboring beta-catenin mutant assessed as reduction in cell viability measured after 72 hrs by SRB assay; type: functional, cell-based; conditions: HCT-116, 72 h
CCD-18Co = assay: Antiproliferative activity against human CCD-18Co cells assessed as reduction in cell viability measured after 72 hrs by SRB assay; type: functional, cell-based
HCT-15 = assay: Antiproliferative activity against human HCT-15 cells harboring wild type beta-catenin assessed as reduction in cell viability measured after 72 hrs by SRB assay; type: functional, cell-based; conditions: HCT-15, 72 h
[1] = Toxicity in BALB/c nude mouse xenografted with human LS174T cells assessed as effect on body weight at 10 to 30 mg/kg, ip administered 3 times per week for 21 days; type: organism-based; conditions: in vivo, 504 h, dose 10-30 mg/kg, time 21 day

Row | SMILES | IC50 (CCD-841CoN) [nM] | IC50 (LS174T) [nM] | IC50 (SW480) [nM] | IC50 (RKO) [nM] | IC50 (HCT-116) [nM] | IC50 (CCD-18Co) [nM] | IC50 (HCT-15) [nM] | Activity [1]
1 | CCc1c2c(nc3ccc(OC(=O)N4CCC(N5CCCCC5)CC4)cc13)-c1cc3c(c(=O)n1C2)COC(=O)[C@]3(O)CC [IRINOTECAN] | 13200 | 700 | 3800 | 700 | 600 | 18500 | 2700 | Toxic
2 | COc1cc([C@@H]2c3cc4c(cc3[C@@H](O[C@@H]3O[C@@H]5CO[C@@H](C)O[C@H]5[C@H](O)[C@H]3O)[C@H]3COC(=O)[C@H]23)OCO4)cc(OC)c1O [ETOPOSIDE] | 7600 | 900 | 800 | 1900 | 500 | 20300 | 1800 | 
